Measurements published in US11700767B2, “Condensed cyclic compound, composition including the condensed cyclic compound, and organic light-emitting device including the composition” (SAMSUNG ELECTRONICS CO., LTD., priority 2017, dated 2023).

Assay: Measurement of solubility in methyl benzoate (Evaluation Example 1)
Assay type: physicochemical
Conditions: for solubility in an organic solvent, as compared with host-c: qualitative statement referring to Table 1; for Solubility: solvent methyl benzoate, room temperature, ultrasonic irradiation, visual check
Protocol: 50 milligrams (mg) of Compound 1-1 and 450 mg of methyl benzoate (solvent) were added to a colorless sample bottle, the mixture was irradiated with ultrasonic waves at room temperature for 5 minutes, and the presence or absence of Compound 1-1 was visually confirmed. […] If Compound 1-1 remained, a small amount of the solvent was added, the irradiation with ultrasonic waves was repeated, and an amount of the solvent was measured until Compound 1-1 was completely dissolved. The solubility was calculated from an amount of the solvent finally used. The solubility values of Compound 1-2 and host-c were calculated in the same manner.

In the case of c1ccc(-c2cccc(-c3cccc(-c4ccc5c(c4)c4ccccc4n5-c4ccc(-c5cccc(-c6cc(-c7ccc(-c8cccc(-c9nc(-c%10ccccc%10)nc(-c%10ccccc%10)n9)c8)cc7)c7oc8ccccc8c7c6)c5)cc4)c3)c2)cc1 [Compound 1-1], the “solubility in an organic solvent, as compared with host-c” value is reported as “high solubility” and the Solubility is reported as 4 weight %.
For c1ccc(-c2cccc(-c3cccc(-c4ccc5c(c4)c4ccccc4n5-c4ccc(-c5cccc(-c6cc(-c7cccc(-c8cccc(-c9cccc(-c%10nc(-c%11ccccc%11)nc(-c%11ccccc%11)n%10)c9)c8)c7)c7oc8ccccc8c7c6)c5)cc4)c3)c2)cc1 [Compound 1-2], the “solubility in an organic solvent, as compared with host-c” value was “high solubility” and the Solubility was 4 weight %.
A Solubility of 0.1 weight % was found for c1ccc(-c2nc(-c3ccccc3)nc(-c3cc(-n4c5ccccc5c5ccccc54)cc4c3oc3ccccc34)n2)cc1 [host-c, reference compound] in this work.
